Patent US9737516B2, “Bicyclic heterocycles as bet protein inhibitors” (Incyte Corporation, priority 2013, dated 2017)
pIC50: −log10 of the molar value. Where a name gives a salt, the structure may show the parent alone.

Legend:
BRD4-BD1 = BRD4-BD1 (Homo sapiens (Human), UniProt O60885); test: BRD4 AlphaScreen assay (BRD4-BD1); format: binding; details: H4Ac4 peptide, 3.8 nM BRD4-BD1, read-out: BRD4 BD-1 enzyme IC50
Description: (§1) BRD4-BD1 and BRD4-BD2 assays were conducted in white 384-well polystyrene plate in a final volume of 20 μL for BD1 and 40 μL for BD2. Inhibitors were first serially diluted in DMSO and added to the plate wells before the addition of other reaction components. The final concentration of DMSO in the assay was 1.25% (BD1) and 0.83% (BD2). The assays were carried out at room temperature for 75 min. in the assay buffer (50 mM HEPES, pH 7.4, 100 mM NaCl, 0.05% CHAPS, 0.01% BSA), containing 50 nM Biotin-labeled tetra-acetylated histone H4 peptide (H4Ac4), 3.8 nM (BRD4-BD1, BPS Bioscience #31040) or 20 nM (BRD4-BD2, BPS Bioscience #31041). The reaction followed by the addition of 20 μL of assay buffer supplemented with Streptavidin donor beads (PerkinElmer 6760002) and GSH Acceptor beads (PerkinElmer-AL109C) at 4 µg/mL under reduced light. After plate sealing, the plate was incubated in the dark at room temperature for 75 min. before reading on a PHERAstar FS plate reader (BMG Labtech). IC50 determination was performed by fitting the curve of percent control activity versus the log of the inhibitor concentration using the GraphPad Prism 5.0 software. IC50 data for the Examples is presented in Table 1 as determined by Assay A1.

BRD4-BD2 = BRD4-BD2 (Homo sapiens (Human), UniProt O60885); test: BRD4 AlphaScreen assay (BRD4-BD2); format: binding; details: H4Ac4 peptide, 20 nM BRD4-BD2, read-out: BRD4 BD-2 enzyme IC50
Description: as §1

KMS.12.BM cells = test: KMS.12.BM cell viability assay (ATP quantitation, Cell Titer-GLO); format: cell-based; details: Homo sapiens, 72 h, 3 days, concentration required for 50% cell death, read-out: KMS cellular IC50
Description: KMS.12.BM cell line (human myeloma) was purchased from JCRB (Osaka, Japan) and maintained in RPMI with 10% FBS culture medium. To measure the cytotoxic activity of the compounds through ATP quantitation, the KMS.12.BM cells are plated in the RPMI culture medium at 5000 cells/well/per 100 μL into a 96-well polystyrene clear black tissue culture plate (Greiner-bio-one through VWR, NJ), in the presence or absence of a concentration range of test compounds. After 3 days, […] Cell Titer-GLO Luminescent (Promega, Madison, Wis.) cell culture agent is added to each well for 10 minutes at room temperature to stabilize the luminescent signal. This determines the number of viable cells in culture based on quantitation of the ATP present, which signals the presence of metabolically active cells. Luminescence is measured with the Top Count 384 (Packard Bioscience through Perkin Elmer, Boston, Mass.). Compound inhibition is determined relative to cells cultured with no drug and the IC50 is reported as the compound concentration required for 50% cell death. IC50 data for the Examples is presented in Table 2 as determined by Assay B1.

C-myc in KMS.12.BM cells = test: KMS.12.BM C-myc ELISA assay; format: cell-based; details: Homo sapiens, 2 hours
Description: KMS.12.BM cell line (human myeloma) was purchased from JCRB (Osaka, Japan) and maintained in RPMI with 10% FBS culture medium. To measure the C-myc inhibitory activity of the compounds, the KMS.12.BM cells are plated in the RPMI culture medium at 75000 cells/well/per 200 μL into a 96-well flat bottom polystyrene tissue culture plate (Corning through VWR, N.J.), in the presence or absence of a concentration range of test compounds. After 2 hours, cell are pelleted and lysed with Cell Extraction Buffer (BioSource, Carlsbad, Calif.) in the presence of protease inhibitors (Life Technologies, Grand Island, N.Y. and Sigma, St Louis, Mo.). Clarified lyses are tested in a C-myc commercial ELISA (Life Technologies, Grand Island, N.Y.). Compound inhibition is determined relative to cells cultured with no drug and the IC50 is reported as the compound concentration required for 50% C-myc inhibition. IC50 data for the Examples is presented in Table 3 as determined by Assay C1.

Row | SMILES | pIC50 (BRD4-BD1) | pIC50 (BRD4-BD2) | pIC50 (KMS.12.BM cells) | pIC50 (C-myc in KMS.12.BM cells)
1 | Cn1cc(-c2cc3[nH]c(=O)[nH]c3cc2Oc2ccc(F)cc2F)c2cc[nH]c2c1=O [Example 1, 5-(2,4-Difluorophenoxy)-6-(6-methyl-7-oxo-6,7-dihydro-1H-pyrrolo[2,3-c]pyridin-4-yl)-1,3-dihydro-2H-benzimidazol-2-one] | ≥ 7.00 | ≥ 7.00 | ≥ 6.00 | ≥ 6.00
2 | Cn1cc(-c2cc3[nH]c(=O)n(C)c3cc2Oc2ccc(F)cc2F)c2cc[nH]c2c1=O [Example 2, 6-(2,4-Difluorophenoxy)-1-methyl-5-(6-methyl-7-oxo-6,7-dihydro-1H-pyrrolo[2,3-c]pyridin-4-yl)-1,3-dihydro-2H-benzimidazol-2-one] | ≥ 7.00 | ≥ 7.00 | ≥ 6.00 | ≥ 6.00
3 | Cn1cc(-c2cc3ncn(C)c3cc2Oc2ccc(F)cc2F)c2cc[nH]c2c1=O [Example 3, 4-[6-(2,4-Difluorophenoxy)-1-methyl-1H-benzimidazol-5-yl]-6-methyl-1,6-dihydro-7H-pyrrolo[2,3-c]pyridin-7-one] | ≥ 7.00 | ≥ 7.00 | ≥ 6.00 | ≥ 6.00
4 | Cc1nc2cc(-c3cn(C)c(=O)c4[nH]ccc34)c(Oc3ccc(F)cc3F)cc2n1C [Example 4, 4-[6-(2,4-Difluorophenoxy)-1,2-dimethyl-1H-benzimidazol-5-yl]-6-methyl-1,6-dihydro-7H-pyrrolo[2,3-c]pyridin-7-one] | ≥ 7.00 | ≥ 7.00 | ≥ 6.00 | ≥ 6.00
5 | Cn1cc(-c2cc3[nH]cnc3cc2Oc2ccc(F)cc2F)c2cc[nH]c2c1=O [Example 5, 4-[5-(2,4-Difluorophenoxy)-1H-benzimidazol-6-yl]-6-methyl-1,6-dihydro-7H-pyrrolo[2,3-c]pyridin-7-one trifluoroacetate] | ≥ 7.00 | ≥ 7.00 | ≥ 6.00 | ≥ 6.00
6 | Cc1nc2cc(Oc3ccc(F)cc3F)c(-c3cn(C)c(=O)c4[nH]ccc34)cc2[nH]1 [Example 6, 4-[5-(2,4-Difluorophenoxy)-2-methyl-1H-benzimidazol-6-yl]-6-methyl-1,6-dihydro-7H-pyrrolo[2,3-c]pyridin-7-one trifluoroacetate] | ≥ 7.00 | ≥ 7.00 | ≥ 6.00 | ≥ 6.00
7 | Cn1cc(-c2cc3c(cc2Oc2ccc(F)cc2F)n(C)c(=O)n3C)c2cc[nH]c2c1=O [Example 7, 5-(2,4-Difluorophenoxy)-1,3-dimethyl-6-(6-methyl-7-oxo-6,7-dihydro-1H-pyrrolo[2,3-c]pyridin-4-yl)-1,3-dihydro-2H-benzimidazol-2-one] | 6.00 to 7.00 | ≥ 7.00 | ≥ 6.00 | –
8 | Cn1cc(-c2cc3[nH]nnc3cc2Oc2ccc(F)cc2F)c2cc[nH]c2c1=O [Example 8, 4-(5-(2,4-difluorophenoxy)-1H-benzo[d][1,2,3]triazol-6-yl)-6-methyl-1H-pyrrolo[2,3-c]pyridin-7(6H)-one] | ≥ 7.00 | ≥ 7.00 | ≥ 6.00 | ≥ 6.00
9 | Cn1cc(-c2cc3[nH]cnc3cc2Oc2ccc(F)cc2F)c2cn[nH]c2c1=O [Example 9, 4-[6-(2,4-Difluorophenoxy)-1H-benzimidazol-5-yl]-6-methyl-1,6-dihydro-7H-pyrazolo[3,4-c]pyridin-7-one trifluoroacetate] | ≥ 7.00 | ≥ 7.00 | ≥ 6.00 | ≥ 6.00
10 | Cn1cc(-c2cc3c(cc2Oc2ccc(F)cc2F)n(C)c(=O)n3C)c2cn[nH]c2c1=O [Example 10, 4-[6-(2,4-Difluorophenoxy)-1,3-dimethyl-2-oxo-2,3-dihydro-1H-benzimidazol-5-yl]-6-methyl-1,6-dihydro-7H-pyrazolo[3,4-c]pyridin-7-one] | ≥ 7.00 | ≥ 7.00 | ≥ 6.00 | ≥ 6.00
11 | Cn1cc(-c2cc3[nH]cnc3cc2OCC2CCC2)c2cc[nH]c2c1=O [Example 11, 4-[5-(Cyclobutylmethoxy)-1H-benzimidazol-6-yl]-6-methyl-1,6-dihydro-7H-pyrrolo[2,3-c]pyridin-7-one] | ≥ 7.00 | ≥ 7.00 | ≥ 6.00 | ≥ 6.00
12 | CCn1cnc2cc(OCC3CCC3)c(-c3cn(C)c(=O)c4[nH]ccc34)cc21 [Example 12, 4-[5-(Cyclobutylmethoxy)-1-ethyl-1H-benzimidazol-6-yl]-6-methyl-1,6-dihydro-7H-pyrrolo[2,3-c]pyridin-7-one] | ≥ 7.00 | ≥ 7.00 | ≥ 6.00 | –
13 | CCn1cnc2cc(-c3cn(C)c(=O)c4[nH]ccc34)c(OCC3CCC3)cc21 [Example 13, 4-[6-(Cyclobutylmethoxy)-1-ethyl-1H-benzimidazol-5-yl]-6-methyl-1,6-dihydro-7H-pyrrolo[2,3-c]pyridin-7-one] | ≥ 7.00 | ≥ 7.00 | ≥ 6.00 | ≥ 6.00
14 | Cn1cc(-c2cc3c(cc2OCC2CCC2)ncn3C)c2cc[nH]c2c1=O [Example 14, 4-[5-(Cyclobutylmethoxy)-1-methyl-1H-benzimidazol-6-yl]-6-methyl-1,6-dihydro-7H-pyrrolo[2,3-c]pyridin-7-one] | ≥ 7.00 | ≥ 7.00 | ≥ 6.00 | ≥ 6.00
15 | Cn1cc(-c2cc3ncn(C)c3cc2OCC2CCC2)c2cc[nH]c2c1=O [Example 15, 4-[6-(Cyclobutylmethoxy)-1-methyl-1H-benzimidazol-5-yl]-6-methyl-1,6-dihydro-7H-pyrrolo[2,3-c]pyridin-7-one] | ≥ 7.00 | ≥ 7.00 | ≥ 6.00 | ≥ 6.00
16 | Cn1cc(-c2cc3c(cc2OCC2CCC2)ncn3Cc2ccccc2)c2cc[nH]c2c1=O [Example 16, 4-[5-(Cyclobutylmethoxy)-1-benzyl-1H-benzimidazol-6-yl]-6-methyl-1,6-dihydro-7H-pyrrolo[2,3-c]pyridin-7-one] | 6.00 to 7.00 | ≥ 7.00 | – | –
17 | Cn1cc(-c2cc3ncn(Cc4ccccc4)c3cc2OCC2CCC2)c2cc[nH]c2c1=O [Example 17, 4-[6-(Cyclobutylmethoxy)-1-benzyl-1H-benzimidazol-5-yl]-6-methyl-1,6-dihydro-7H-pyrrolo[2,3-c]pyridin-7-one] | ≥ 7.00 | ≥ 7.00 | ≥ 6.00 | ≥ 6.00
18 | CC(C)n1cnc2cc(OCC3CCC3)c(-c3cn(C)c(=O)c4[nH]ccc34)cc21 [Example 18, 4-[5-(Cyclobutylmethoxy)-1-isopropyl-1H-benzimidazol-6-yl]-6-methyl-1,6-dihydro-7H-pyrrolo[2,3-c]pyridin-7-one] | ≥ 7.00 | ≥ 7.00 | ≥ 6.00 | ≥ 6.00
19 | Cn1cc(-c2cc3[nH]c(C4CCCC4)nc3cc2OCC2CCC2)c2cc[nH]c2c1=O [Example 21, 4-[5-(Cyclobutylmethoxy)-2-cyclopentyl-1H-benzimidazol-6-yl]-6-methyl-1,6-dihydro-7H-pyrrolo[2,3-c]pyridin-7-one bis(trifluoroacetate)] | ≥ 7.00 | ≥ 7.00 | ≥ 6.00 | –
20 | Cn1cc(-c2cc3[nH]c(CCC(=O)O)nc3cc2OCC2CCC2)c2cc[nH]c2c1=O [Example 22, Ammonium 3-[5-(cyclobutylmethoxy)-6-(6-methyl-7-oxo-6,7-dihydro-1H-pyrrolo[2,3-c]pyridin-4-yl)-1H-benzimidazol-2-yl]propanoate] | ≥ 7.00 | ≥ 7.00 | 5.00 to 6.00 | –
